Where two headings read alike, the source gives them in different places.

The source of these data is article PMC9491098, “Discovery of novel drug-like antitubercular hits targeting the MEP pathway enzyme DXPS by strategic application of ligand-based virtual screening” (Chemical Science, 2022).

The target in assay [1] is T1, MtDXPS (Mycobacterium tuberculosis, UniProt P9WNS3). The experiment in a line: biochemical. Conditions: for Ki: MtDXPS.
The target in assay [2] is T1, MtDXPS. The experiment in a line: biochemical.
Another assay concerns the target DrDXPS (WT) (Deinococcus radiodurans, UniProt Q9RUB5). Conditions: pseudo-inhibitors; cited from earlier work.
The mark [3] stands for this setting: Table 1C, aminothiazole derivatives, read-out: K i*.
[4] abbreviates: Table S3, third round of LBVS, MtDXPS, read-out: IC50.
The mark [5] stands for this setting: Table 1B, oxime derivatives, read-out: K i*.

T1 sequence (P9WNS3 whole entry, looked up): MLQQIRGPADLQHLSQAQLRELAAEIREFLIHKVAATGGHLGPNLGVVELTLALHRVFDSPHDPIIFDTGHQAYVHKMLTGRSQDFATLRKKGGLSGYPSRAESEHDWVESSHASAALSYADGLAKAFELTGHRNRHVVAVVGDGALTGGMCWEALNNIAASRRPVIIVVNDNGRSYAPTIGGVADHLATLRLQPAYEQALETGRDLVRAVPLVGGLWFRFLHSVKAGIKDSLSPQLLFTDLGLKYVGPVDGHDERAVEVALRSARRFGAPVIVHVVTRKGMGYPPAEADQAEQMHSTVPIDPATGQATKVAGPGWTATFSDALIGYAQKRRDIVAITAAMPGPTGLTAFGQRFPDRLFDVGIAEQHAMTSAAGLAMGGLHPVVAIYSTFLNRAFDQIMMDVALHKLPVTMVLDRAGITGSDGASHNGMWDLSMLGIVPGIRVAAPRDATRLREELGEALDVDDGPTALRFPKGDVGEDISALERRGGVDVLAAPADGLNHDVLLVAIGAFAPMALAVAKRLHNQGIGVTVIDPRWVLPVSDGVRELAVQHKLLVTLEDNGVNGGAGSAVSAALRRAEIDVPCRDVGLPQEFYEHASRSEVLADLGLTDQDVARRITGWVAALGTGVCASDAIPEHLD
DrDXPS (WT), sequence (Q9RUB5 whole entry, looked up): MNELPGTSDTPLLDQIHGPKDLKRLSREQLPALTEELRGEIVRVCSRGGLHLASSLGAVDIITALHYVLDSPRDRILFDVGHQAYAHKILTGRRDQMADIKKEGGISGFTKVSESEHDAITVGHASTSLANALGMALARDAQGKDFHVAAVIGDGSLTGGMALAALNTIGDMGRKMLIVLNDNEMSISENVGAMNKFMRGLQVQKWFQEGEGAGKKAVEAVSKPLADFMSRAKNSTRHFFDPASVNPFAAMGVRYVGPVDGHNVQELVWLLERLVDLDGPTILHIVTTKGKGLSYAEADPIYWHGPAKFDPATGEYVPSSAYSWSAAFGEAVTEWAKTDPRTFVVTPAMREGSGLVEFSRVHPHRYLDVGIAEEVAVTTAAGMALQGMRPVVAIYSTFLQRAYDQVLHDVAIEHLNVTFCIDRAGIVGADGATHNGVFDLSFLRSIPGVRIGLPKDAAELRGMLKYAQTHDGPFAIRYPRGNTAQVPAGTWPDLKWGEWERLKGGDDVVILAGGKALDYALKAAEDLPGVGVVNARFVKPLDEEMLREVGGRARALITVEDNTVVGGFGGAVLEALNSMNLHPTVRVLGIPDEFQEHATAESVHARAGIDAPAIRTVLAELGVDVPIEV

For the molecule `Cc1nc(C)c(-c2csc(Nc3ccc(Cl)cn3)n2)s1` [Compound 31], the Ki at MtDXPS [1] (setting [3]) was over 10 µM. Further, the 50% inhibitory concentration (IC50) (as a rule, the concentration that inhibits the measured activity by half) on MtDXPS [2] (setting [4]) is over 0.5 mM.

`O=Cc1cn(Cc2ccc(Cl)c(Cl)c2)c2ccccc12` [Compound 13]: the Ki on MtDXPS [1] (K i* (μM), Table 1A, indole derivatives) is over 10 µM.

As to `OCc1cc(CO)n(CCc2c[nH]cn2)n1` [Compound 2, reference compound], the “inhibition of DrDXPS” value at DrDXPS (WT) was “weak inhibitors”. At MtDXPS [2], the IC50 is over 2 mM.

For `COc1ccc(C/C(=N\O)c2ccc(O)cc2O)cc1` [Compound 22], the Ki at MtDXPS [1] (setting [5]) was over 10 µM.

On to `N/N=C(\Cc1ccc(Cl)cc1)c1ccc(O)cc1O` [Compound 21], for which, on MtDXPS [1] (SAR discussion of Table 1A–C), the “inhibitory activity against MtDXPS, SAR statement” value is recorded as “activity is partially retained”. For the same molecule, the Ki on MtDXPS [1] (setting [5]) was found to be 0.4 ± 0.05 µM.

Regarding `COc1cncc(Cn2ccnc2)c1` [Compound 1, reference compound], the “inhibition of DrDXPS” value at DrDXPS (WT) is “weak inhibitors”. Besides, the concentration for half-maximal inhibition (IC50) at MtDXPS [2] was over 2 mM.

Take `Cc1nc(N)sc1-c1csc(Nc2ccccc2)n1` [Compound 26]: the Ki on MtDXPS [1] (setting [3]) was over 10 µM. For the same molecule, the IC50 on MtDXPS [2] (setting [4]) is over 0.12 mM.

Consider `COc1ccc(/C(Cc2ccc(Cl)cc2)=N/O)c(O)c1` [Compound 24], for which the Ki on MtDXPS [1] (setting [5]) turned out to be 0.5 ± 0.1 µM.
